Assays:
[1] = target: Tyrosine-protein kinase Lyn (Homo sapiens) (UniProt P07948); assay: Inhibition of LYNB (unknown origin) at 0.164 uM relative to control
[2] = target: Ephrin type-A receptor 4 (Homo sapiens) (UniProt P54764); assay: Inhibition of EPHA4 (unknown origin) at 0.164 uM relative to control
[3] = target: ALK tyrosine kinase receptor (Homo sapiens) (UniProt Q9UM73); assay: Inhibition of ALK (unknown origin) at 0.164 uM relative to control
[4] = target: Serine/threonine-protein kinase 25 (Homo sapiens) (UniProt O00506); assay: Inhibition of YSK (unknown origin) at 0.164 uM relative to control
[5] = target: Casein kinase I isoform alpha (Homo sapiens) (UniProt P48729); assay: Inhibition of CSNK1A1 (unknown origin) at 0.164 uM relative to control
[6] = target: Serine/threonine-protein kinase Nek1 (Homo sapiens) (UniProt Q96PY6); assay: Inhibition of NEK1 (unknown origin) at 0.164 uM relative to control
Sequence of Serine/threonine-protein kinase Nek1 (Homo sapiens) (Q96PY6 whole entry): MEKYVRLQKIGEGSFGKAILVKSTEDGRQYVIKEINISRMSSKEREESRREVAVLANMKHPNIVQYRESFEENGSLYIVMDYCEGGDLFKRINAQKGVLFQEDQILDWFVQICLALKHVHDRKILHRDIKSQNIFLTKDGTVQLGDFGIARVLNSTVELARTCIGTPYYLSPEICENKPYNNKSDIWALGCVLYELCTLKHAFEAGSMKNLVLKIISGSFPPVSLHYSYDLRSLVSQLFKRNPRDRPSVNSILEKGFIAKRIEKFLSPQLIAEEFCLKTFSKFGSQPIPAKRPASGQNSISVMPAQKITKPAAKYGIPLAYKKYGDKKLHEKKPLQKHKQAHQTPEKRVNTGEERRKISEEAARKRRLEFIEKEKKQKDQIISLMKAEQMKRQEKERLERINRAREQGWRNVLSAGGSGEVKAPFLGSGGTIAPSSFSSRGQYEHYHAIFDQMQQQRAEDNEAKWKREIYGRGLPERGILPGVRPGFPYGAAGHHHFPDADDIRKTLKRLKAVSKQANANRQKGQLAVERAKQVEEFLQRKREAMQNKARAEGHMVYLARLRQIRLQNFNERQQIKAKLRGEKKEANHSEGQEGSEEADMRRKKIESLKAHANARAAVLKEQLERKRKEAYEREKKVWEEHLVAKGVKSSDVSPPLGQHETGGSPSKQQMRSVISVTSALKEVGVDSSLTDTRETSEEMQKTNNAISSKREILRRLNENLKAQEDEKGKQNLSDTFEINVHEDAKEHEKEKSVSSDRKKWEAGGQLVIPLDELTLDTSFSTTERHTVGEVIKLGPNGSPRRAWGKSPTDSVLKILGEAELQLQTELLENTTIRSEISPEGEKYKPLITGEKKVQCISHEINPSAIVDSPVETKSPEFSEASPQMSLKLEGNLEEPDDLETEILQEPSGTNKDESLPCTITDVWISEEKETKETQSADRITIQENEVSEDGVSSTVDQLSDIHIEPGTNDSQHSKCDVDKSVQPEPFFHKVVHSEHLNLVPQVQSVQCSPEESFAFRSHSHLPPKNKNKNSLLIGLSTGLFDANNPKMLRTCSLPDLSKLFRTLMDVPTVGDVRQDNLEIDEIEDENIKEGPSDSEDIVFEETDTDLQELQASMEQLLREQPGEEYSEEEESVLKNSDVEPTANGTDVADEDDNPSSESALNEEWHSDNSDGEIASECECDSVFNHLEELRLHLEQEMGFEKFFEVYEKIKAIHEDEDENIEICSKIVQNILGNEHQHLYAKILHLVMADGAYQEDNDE

[7] = target: Dual specificity protein kinase CLK3 (Homo sapiens) (UniProt P49761); assay: Inhibition of CLK3 (unknown origin) at 0.164 uM relative to control
[8] = test system: Epidermal growth factor receptor (Homo sapiens), P00533 [L858R,T790M]; assay: Inhibition of EGFR T790M/L858R double mutant (unknown origin) at 0.164 uM relative to control
Sequence of Epidermal growth factor receptor (Homo sapiens), P00533 [L858R,T790M] (P00533 whole entry T790M/L858R, looked up): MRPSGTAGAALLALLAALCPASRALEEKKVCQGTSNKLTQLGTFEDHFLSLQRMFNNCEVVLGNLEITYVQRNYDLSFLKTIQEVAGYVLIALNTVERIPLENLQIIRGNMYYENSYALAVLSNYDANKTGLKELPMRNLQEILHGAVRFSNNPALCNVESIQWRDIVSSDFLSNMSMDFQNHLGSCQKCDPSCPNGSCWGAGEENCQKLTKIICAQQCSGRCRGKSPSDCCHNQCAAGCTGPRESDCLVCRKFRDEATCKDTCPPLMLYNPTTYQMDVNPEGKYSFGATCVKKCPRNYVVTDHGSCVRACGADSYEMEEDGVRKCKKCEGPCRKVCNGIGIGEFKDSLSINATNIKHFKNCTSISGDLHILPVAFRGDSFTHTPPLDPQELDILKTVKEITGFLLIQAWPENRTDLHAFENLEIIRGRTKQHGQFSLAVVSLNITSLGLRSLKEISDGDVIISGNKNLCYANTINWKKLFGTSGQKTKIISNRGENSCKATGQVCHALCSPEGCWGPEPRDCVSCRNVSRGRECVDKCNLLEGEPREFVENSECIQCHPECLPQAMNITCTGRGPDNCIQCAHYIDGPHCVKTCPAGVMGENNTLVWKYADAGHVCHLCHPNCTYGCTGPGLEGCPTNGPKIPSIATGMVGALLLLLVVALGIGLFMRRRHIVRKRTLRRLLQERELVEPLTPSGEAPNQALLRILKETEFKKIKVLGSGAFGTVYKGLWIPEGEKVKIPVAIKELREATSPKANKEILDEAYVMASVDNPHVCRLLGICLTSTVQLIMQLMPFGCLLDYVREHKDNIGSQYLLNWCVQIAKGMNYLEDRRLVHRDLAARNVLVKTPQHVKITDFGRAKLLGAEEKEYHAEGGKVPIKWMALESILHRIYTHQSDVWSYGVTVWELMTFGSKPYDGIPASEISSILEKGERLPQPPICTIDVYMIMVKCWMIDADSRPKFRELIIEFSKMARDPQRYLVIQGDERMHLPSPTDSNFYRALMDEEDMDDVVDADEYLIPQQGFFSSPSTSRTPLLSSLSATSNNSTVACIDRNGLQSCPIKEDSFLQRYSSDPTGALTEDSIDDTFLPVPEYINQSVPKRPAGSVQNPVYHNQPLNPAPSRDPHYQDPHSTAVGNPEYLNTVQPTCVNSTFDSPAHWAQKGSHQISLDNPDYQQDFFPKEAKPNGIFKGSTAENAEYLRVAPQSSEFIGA

[9] = test system: Leucine-rich repeat serine/threonine-protein kinase 2 (Homo sapiens), Q5S007 [G2019S]; assay: Inhibition of LRRK2 G2019S mutant (unknown origin) at 0.164 uM relative to control
[10] = target: Ephrin type-B receptor 2 (Homo sapiens) (UniProt P29323); assay: Inhibition of EPHB2 (unknown origin) at 0.164 uM relative to control
[11] = target: Vascular endothelial growth factor receptor 3 (Homo sapiens) (UniProt P35916); assay: Inhibition of FLT4 (unknown origin) at 0.164 uM relative to control
[12] = target: Phosphorylase b kinase gamma catalytic chain, skeletal muscle/heart isoform (Homo sapiens) (UniProt Q16816); assay: Inhibition of PhKg1 (unknown origin) at 0.164 uM relative to control
Sequence of Phosphorylase b kinase gamma catalytic chain, skeletal muscle/heart isoform (Homo sapiens) (Q16816 whole entry, looked up, canonical isoform): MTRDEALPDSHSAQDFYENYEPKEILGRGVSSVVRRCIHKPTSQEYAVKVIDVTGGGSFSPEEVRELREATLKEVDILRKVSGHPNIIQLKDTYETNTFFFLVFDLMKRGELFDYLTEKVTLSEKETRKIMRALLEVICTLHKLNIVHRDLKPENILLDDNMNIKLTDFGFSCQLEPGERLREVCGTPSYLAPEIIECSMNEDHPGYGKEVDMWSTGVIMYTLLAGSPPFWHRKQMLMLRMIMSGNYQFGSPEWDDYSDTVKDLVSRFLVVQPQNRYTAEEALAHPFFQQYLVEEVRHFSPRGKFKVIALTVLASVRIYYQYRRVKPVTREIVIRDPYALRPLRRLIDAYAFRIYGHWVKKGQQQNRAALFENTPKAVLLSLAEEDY

[13] = target: NT-3 growth factor receptor (Homo sapiens) (UniProt Q16288); assay: Inhibition of TRKC (unknown origin) at 0.164 uM relative to control
Sequence of NT-3 growth factor receptor (Homo sapiens) (Q16288 32-839 limits assumed): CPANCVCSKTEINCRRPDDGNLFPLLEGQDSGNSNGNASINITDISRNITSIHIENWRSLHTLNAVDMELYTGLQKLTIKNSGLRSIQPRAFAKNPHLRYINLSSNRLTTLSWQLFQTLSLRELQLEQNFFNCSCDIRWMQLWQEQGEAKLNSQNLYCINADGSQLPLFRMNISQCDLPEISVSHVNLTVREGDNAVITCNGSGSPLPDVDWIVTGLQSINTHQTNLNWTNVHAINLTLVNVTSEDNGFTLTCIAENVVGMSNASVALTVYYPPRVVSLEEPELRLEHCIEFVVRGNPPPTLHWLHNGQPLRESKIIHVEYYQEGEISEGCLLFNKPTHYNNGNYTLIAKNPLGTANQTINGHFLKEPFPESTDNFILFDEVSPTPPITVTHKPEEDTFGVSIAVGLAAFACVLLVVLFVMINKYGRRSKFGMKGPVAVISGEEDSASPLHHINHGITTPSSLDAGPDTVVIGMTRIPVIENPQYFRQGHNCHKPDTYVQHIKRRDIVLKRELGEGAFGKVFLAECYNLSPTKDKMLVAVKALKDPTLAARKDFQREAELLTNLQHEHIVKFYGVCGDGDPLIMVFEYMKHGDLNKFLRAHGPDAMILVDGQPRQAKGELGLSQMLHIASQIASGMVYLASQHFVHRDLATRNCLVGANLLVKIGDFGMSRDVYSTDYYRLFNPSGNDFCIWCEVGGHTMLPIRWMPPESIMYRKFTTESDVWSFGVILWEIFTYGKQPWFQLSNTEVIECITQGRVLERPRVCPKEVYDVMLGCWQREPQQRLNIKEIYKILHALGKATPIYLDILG

[14] = target: Ribosomal protein S6 kinase alpha-3 (Homo sapiens) (UniProt P51812); assay: Inhibition of RSK2 (unknown origin) at 0.164 uM relative to control
Sequence of Ribosomal protein S6 kinase alpha-3 (Homo sapiens) (P51812 whole entry): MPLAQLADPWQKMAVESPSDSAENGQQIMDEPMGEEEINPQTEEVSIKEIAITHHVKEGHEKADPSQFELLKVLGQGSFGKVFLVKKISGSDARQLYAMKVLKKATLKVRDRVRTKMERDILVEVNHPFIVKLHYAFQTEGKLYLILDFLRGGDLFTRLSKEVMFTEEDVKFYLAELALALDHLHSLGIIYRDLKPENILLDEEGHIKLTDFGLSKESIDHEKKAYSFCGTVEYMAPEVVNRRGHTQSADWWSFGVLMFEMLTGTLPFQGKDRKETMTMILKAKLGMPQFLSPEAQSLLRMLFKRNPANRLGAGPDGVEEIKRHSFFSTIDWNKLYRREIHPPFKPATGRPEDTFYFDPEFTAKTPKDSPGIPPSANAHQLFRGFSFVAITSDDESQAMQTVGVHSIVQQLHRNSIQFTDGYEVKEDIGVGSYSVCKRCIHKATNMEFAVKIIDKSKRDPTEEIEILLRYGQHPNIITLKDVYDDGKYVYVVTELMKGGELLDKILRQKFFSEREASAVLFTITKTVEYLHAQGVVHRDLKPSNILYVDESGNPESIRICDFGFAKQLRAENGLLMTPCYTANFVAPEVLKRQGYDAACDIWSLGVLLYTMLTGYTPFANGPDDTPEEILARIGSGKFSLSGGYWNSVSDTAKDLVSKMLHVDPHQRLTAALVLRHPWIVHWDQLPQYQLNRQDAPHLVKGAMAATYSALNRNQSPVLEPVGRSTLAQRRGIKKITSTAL

[15] = target: cAMP-dependent protein kinase catalytic subunit PRKX (Homo sapiens) (UniProt P51817); assay: Inhibition of PRKX (unknown origin) at 0.164 uM relative to control
[16] = target: Macrophage colony-stimulating factor 1 receptor (Homo sapiens) (UniProt P07333); assay: Inhibition of FMS (unknown origin) at 0.164 uM relative to control
[17] = target: T1, cGMP-dependent protein kinase 1 (Homo sapiens) (UniProt Q13976); assay: Inhibition of PKG-alpha (unknown origin) at 0.45 uM relative to control
T1 sequence (whole entry): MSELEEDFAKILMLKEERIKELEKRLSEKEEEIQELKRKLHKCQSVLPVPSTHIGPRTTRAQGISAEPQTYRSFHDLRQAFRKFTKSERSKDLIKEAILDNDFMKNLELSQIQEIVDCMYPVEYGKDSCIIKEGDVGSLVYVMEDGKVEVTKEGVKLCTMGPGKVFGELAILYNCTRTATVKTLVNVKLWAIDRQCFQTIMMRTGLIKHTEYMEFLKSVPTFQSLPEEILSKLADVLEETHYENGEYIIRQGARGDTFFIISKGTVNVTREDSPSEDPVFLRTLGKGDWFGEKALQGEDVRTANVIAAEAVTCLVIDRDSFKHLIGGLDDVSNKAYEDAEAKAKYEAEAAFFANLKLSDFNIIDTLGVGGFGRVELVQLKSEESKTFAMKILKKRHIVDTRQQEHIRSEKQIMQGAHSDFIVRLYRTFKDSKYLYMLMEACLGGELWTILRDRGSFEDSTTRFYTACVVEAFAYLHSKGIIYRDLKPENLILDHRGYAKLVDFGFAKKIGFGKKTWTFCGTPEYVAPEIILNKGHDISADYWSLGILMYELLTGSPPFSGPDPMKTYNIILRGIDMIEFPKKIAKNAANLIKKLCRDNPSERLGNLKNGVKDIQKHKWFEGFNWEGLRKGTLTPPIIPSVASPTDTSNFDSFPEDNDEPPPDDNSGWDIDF

[18] = target: Rho-associated protein kinase 1 (Homo sapiens) (UniProt Q13464); assay: Inhibition of ROCK1 (unknown origin) at 0.45 uM relative to control
[19] = target: CDK4/Cyclin D3 (Homo sapiens) (UniProt P11802+P30281); assay: Inhibition of CDK4/CyclinD3 (unknown origin) at 0.45 uM relative to control; type: protein-complex assay
[20] = target: Receptor tyrosine-protein kinase erbB-4 (Homo sapiens) (UniProt Q15303); assay: Inhibition of HER4 (unknown origin) at 0.45 uM relative to control
[21] = target: PAS domain-containing serine/threonine-protein kinase (Homo sapiens) (UniProt Q96RG2); assay: Inhibition of PASK (unknown origin) at 0.45 uM relative to control
[22] = target: RAC-beta serine/threonine-protein kinase (Homo sapiens) (UniProt P31751); assay: Inhibition of AKT2 (unknown origin) at 0.19 uM relative to control
[23] = target: Protein kinase C delta type (Homo sapiens) (UniProt Q05655); assay: Inhibition of PKC-delta (unknown origin) at 0.19 uM relative to control
[24] = target: Tyrosine-protein kinase Yes (Homo sapiens) (UniProt P07947); assay: Inhibition of Yes (unknown origin) at 0.19 uM relative to control
[25] = target: Tyrosine-protein kinase ABL2 (Homo sapiens) (UniProt P42684); assay: Inhibition of Arg (unknown origin) at 0.19 uM relative to control
[26] = target: Serine/threonine-protein kinase Sgk1 (Homo sapiens) (UniProt O00141); assay: Inhibition of SGK1 (unknown origin) at 0.19 uM relative to control
[27] = target: Casein kinase I isoform gamma-1 (Homo sapiens) (UniProt Q9HCP0); assay: Inhibition of CK1-gamma1 (unknown origin) at 0.19 uM relative to control
[28] = target: NT-3 growth factor receptor (Homo sapiens) (UniProt Q16288); assay: Inhibition of TRKC (unknown origin) at 0.19 uM relative to control

Sequence of Tyrosine-protein kinase Lyn (Homo sapiens) (P07948 2-512 limits assumed): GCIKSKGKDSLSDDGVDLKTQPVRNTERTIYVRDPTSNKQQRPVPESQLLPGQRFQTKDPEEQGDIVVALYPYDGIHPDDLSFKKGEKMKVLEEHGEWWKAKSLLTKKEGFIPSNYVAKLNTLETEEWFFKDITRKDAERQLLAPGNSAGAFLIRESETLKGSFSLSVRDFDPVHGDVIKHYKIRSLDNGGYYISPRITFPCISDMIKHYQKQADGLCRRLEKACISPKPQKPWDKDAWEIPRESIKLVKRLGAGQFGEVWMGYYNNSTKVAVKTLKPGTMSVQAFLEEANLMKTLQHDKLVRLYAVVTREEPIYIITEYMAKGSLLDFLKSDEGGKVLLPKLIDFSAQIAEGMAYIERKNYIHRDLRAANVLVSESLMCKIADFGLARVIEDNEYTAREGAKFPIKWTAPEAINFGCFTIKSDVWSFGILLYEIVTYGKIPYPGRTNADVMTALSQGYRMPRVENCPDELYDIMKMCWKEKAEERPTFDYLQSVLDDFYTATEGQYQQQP

Work on COC(=O)Nc1cc(-c2c(C3CC3)n[nH]c2C)cc2[nH]ncc12 yielded an inhibition [1] of -0.3%, an inhibition [2] of -2.3% and an inhibition [3] of 4.3%. It also gave an inhibition [4] of -2.7%, an inhibition [5] of 5% and an inhibition [6] of -1.3%. It also gave an inhibition [7] of 3.7%, an inhibition [8] of 1% and an inhibition [9] of 2.3%. The inhibition [10] was -1%, the inhibition [11] was 5.3% and the inhibition [12] was 1%. For the same compound, the inhibition [13] was 7.3%, the inhibition [14] was 1.7% and the inhibition [15] was -3.3%. It also gave an inhibition [16] of -0.7%.
For Cc1n[nH]c(C)c1-c1ccc2c(NC(=O)c3ccc(N4CCN(C)CC4)cc3)n[nH]c2c1, the inhibition [17] was -1.7%, the inhibition [18] was -2% and the inhibition [19] was -8.3%. The inhibition [20] was -7% and the inhibition [21] was -2%.
With Cc1[nH]nc(C2CC2)c1-c1ccc2c(-c3ccc(N4CCN(C)CC4)nc3)n[nH]c2c1 the inhibition [22] was 1%, the inhibition [23] was 0% and the inhibition [24] was 3.7%. The inhibition [25] was 57%, the inhibition [26] was 6.3% and the inhibition [27] was -0.3%. The inhibition [28] was 42%.

Reference: ChEMBL document CHEMBL4118098, “Discovery of DS28120313 as a potent orally active hepcidin production inhibitor: Design and optimization of novel 4,6-disubstituted indazole derivatives” (Bioorg Med Chem Lett, 2017)
